Measured values reported in paper PMC6858373 (Scientific Reports, 2019).

Columns and labels:
[1] = biological target: T1, FGF14:Nav1.6 C-tail complex (Homo sapiens, UniProt Q92915+Q9UQD0); assay: Split-luciferase complementation assay (LCA) in Clone V double stable HEK293 cells; assay type: cell-based; details: for Split Luciferase Assay % Lum Set 1 / Split Luciferase Assay %Lum Set 2 / Split Luciferase Assay Z-score Set 1 / Split Luciferase Assay Z-score Set 2 / Split Luciferase Assay %Lum Avg: CC_NCI screening; for Split Luciferase Assay % Lum Set 1 / Split Luciferase Assay %Lum Set 2: LCA luminescence, normalized to on-plate 0.3% DMSO controls (n=16 per plate); for Split Luciferase Assay % Lum Set 1 / Split Luciferase Assay Z-score Set 1: biological replicate Set 1; for Split Luciferase Assay %Lum Set 2 / Split Luciferase Assay Z-score Set 2: biological replicate Set 2; for Split Luciferase Assay Z-score Set 1 / Split Luciferase Assay Z-score Set 2: LCA, normalized to on-plate 0.3% DMSO controls; for Split Luciferase Assay %Lum Avg: average of Set 1 and Set 2, normalized to 0.3% DMSO controls
T1 construct: polymerase chain reaction (PCR) amplification of the FGF14 open reading frame (nt 1–855); C-terminal fragment of Nav1.6 (amino acids 1763–1976) fused with CD4ΔC-tail (amino acids 1–395); expressed in transfected cells

[2] = biological target: full-length P. pyralis luciferase (Photinus pyralis, UniProt P08659, K549A/L550V/N119G/N50D/S548I); assay type: cell-based; details: CC_NCI screening, normalized to on-plate 0.3% DMSO controls; for Luciferase Assay % Lum: full-length luciferase counter-screen luminescence; for Luciferase Assay Z-score: full-length luciferase counter-screen
Clone V cells = assay: CellTiter Blue (CTB) cell viability counter-screen; details: CC_NCI screening, normalized to on-plate 0.3% DMSO controls; for Toxicity Assay % Fluor: CTB cell viability fluorescence; for Toxicity Assay Z-score: CTB cell viability

Sequence of full-length P. pyralis luciferase (P08659 whole entry N50D/N119G/S548I/K549A/L550V, looked up): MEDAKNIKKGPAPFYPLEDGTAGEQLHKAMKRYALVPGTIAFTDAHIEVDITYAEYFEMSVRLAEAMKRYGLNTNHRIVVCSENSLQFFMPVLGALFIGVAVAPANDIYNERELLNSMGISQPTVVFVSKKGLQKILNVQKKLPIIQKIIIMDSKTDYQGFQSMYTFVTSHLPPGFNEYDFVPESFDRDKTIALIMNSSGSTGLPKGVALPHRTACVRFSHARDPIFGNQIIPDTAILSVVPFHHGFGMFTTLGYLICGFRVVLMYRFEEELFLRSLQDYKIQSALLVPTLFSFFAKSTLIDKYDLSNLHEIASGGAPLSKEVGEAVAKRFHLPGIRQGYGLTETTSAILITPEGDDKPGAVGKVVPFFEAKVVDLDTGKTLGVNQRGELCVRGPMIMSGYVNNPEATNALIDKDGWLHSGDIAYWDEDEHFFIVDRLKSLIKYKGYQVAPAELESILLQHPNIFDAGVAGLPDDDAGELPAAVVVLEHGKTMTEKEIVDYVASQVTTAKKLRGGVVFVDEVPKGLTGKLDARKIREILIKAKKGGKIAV
T1 sequence (Q92915 1-252 isoform Q92915-2): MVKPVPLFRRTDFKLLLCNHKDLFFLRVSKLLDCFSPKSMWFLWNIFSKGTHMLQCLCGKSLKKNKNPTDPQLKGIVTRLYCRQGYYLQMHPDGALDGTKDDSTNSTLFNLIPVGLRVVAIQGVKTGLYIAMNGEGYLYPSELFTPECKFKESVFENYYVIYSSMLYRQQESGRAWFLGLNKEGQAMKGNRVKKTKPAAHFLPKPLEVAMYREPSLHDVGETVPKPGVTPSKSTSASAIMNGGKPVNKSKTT
T1 sequence (Q9UQD0 1763-1976 limits assumed): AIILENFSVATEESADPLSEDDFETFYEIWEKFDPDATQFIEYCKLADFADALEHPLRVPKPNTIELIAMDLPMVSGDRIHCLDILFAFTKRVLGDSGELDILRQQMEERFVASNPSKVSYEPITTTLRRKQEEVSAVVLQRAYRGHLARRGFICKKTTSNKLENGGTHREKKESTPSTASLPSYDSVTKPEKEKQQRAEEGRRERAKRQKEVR

SMILES	Split Luciferase Assay % Lum Set 1 [1]	Split Luciferase Assay %Lum Set 2 [1]	Split Luciferase Assay Z-score Set 1 [1]	Split Luciferase Assay Z-score Set 2 [1]	Split Luciferase Assay %Lum Avg [1]	Luciferase Assay % Lum [2]	Luciferase Assay Z-score [2]	Toxicity Assay % Fluor (Clone V cells)	Toxicity Assay Z-score (Clone V cells)	Z-score (LCA primary screening) ([1]; 30 µM, 384-well, average of primary screening (n = 2), vs on-plate 0.3% DMSO)	IMin (% Luminescence) ([1]; antagonists, Clone V cells, 384-well, normalized to DMSO)	IC50 ([1]; estimated, 8-point dose response 0.25-30 µM, n = 4 per concentration, library compounds, read-out: IC50)
Cc1c(NC(=O)OC[C@@H]2COCCN2)cn2ncnc(Nc3ccc4c(cnn4Cc4cccc(F)c4)c3)c12 [BMS-599626]	38.37%	50.98%	-4.98	-3.99	44.68%	83.05%	-2.17	101.94%	0.27			
COc1cc(Nc2c(C#N)cnc3cc(OCCCN4CCN(C)CC4)c(OC)cc23)c(Cl)cc1Cl [BOSUTINIB]		94.67%	0.73	-0.43	101.85%	108.17%	1.05	88.31%	-1.63			
O=C(NOCC1CC1)c1ccc(F)c(F)c1Nc1ccc(I)cc1Cl [CI 1040, reference compound]	50.33%	42.65%	-4.01	-4.67	46.49%	103.28%	0.42	85.93%	-1.97	−4.34	46.49 % Luminescence	14.8 µM
CO[C@H]1C(=O)[C@]2(C)[C@@H](OC)C[C@H]3OC[C@@]3(OC(C)=O)[C@H]2[C@H](OC(=O)c2ccccc2)[C@]2(O)C[C@H](OC(=O)[C@H](O)[C@@H](NC(=O)OC(C)(C)C)c3ccccc3)C(C)=C1C2(C)C [Cabazitaxel]	101.43%	112.35%	0.12	1.01	106.89%	90.38%	-1.23	82.13%	-2.50			
Nc1nc(Cl)nc2c1ncn2[C@H]1C[C@H](O)[C@@H](CO)O1 [Cladribine]				3.04		98.25%	-0.22	83.86%	-2.26			
CO[C@H]1C[C@@H]2CC[C@@H](C)[C@@](O)(O2)C(=O)C(=O)N2CCCC[C@H]2C(=O)O[C@H]([C@H](C)C[C@@H]2CC[C@@H](OCCO)[C@H](OC)C2)CC(=O)[C@H](C)/C=C(\C)[C@@H](O)[C@@H](OC)C(=O)[C@H](C)C[C@H](C)/C=C/C=C/C=C/1C [Everolimus]	76.42%	84.27%	-1.91	-1.28	80.34%	72.79%	-3.48	91.22%	-1.23			
